The record followed here is patent US9079905B2, “Compounds for the treatment of CNS disorders” (Boehringer Ingelheim International GmbH, priority 2008, dated 2015).

In the experiment the target is T1, human PDE9A2 (Homo sapiens, UniProt O76083).
T1 construct: made in house; host or cells: Sf9 insect cells (infected; crude lysate used as enzyme source)
As to the kind of experiment: PDE9A2 enzymatic activity assay (scintillation proximity assay). The class given is biochemical. The note with it: for inhibition at 10 µM: read-out: % Inhibition of PDE 9A2; for IC50: specific IC50 value is within the given range; for inhibition at 10 µM / % Inhibition of PDE 9A2: at 10 μM. The procedure: The PDE9A2 enzymatic activity assay was run as scintillation proximity assay (SPA), in general according to the protocol of the manufacturer (Amersham Biosciences, product number: TRKQ 7100).
As enzyme source, lysate (PBS with 1% Triton X-100 supplemented with protease inhibitors, cell debris removed by centrifugation at 13.000 rpm for 30 min) of SF 9 cell expressing the human PDE9A2 was used. The total protein amount included in the assay varied upon infection and production efficacy of the SF9 cells and lay in the range of 0.1-100 ng.
In general, the assay conditions were as follows: • total assay volume: 40 microliter • protein amount: 0.1-50 ng • substrate concentration (cGMP): 20 nanomolar; ˜1 mCi/1 • incubation time: 60 min at room temperature • final DMSO concentration: 0.2-1
The assays were run in 384-well format. The test reagents as well as the enzyme and the substrate were diluted in assay buffer. The assay buffer contained 50 mM Tris, 8.3 mM MgCl2, 1.7 mM EGTA, 0.1% BSA, 0.05% Tween 20; the pH of assay buffer was adjusted to 7.5. The reaction was stopped by applying a PDE9 specific inhibitor (e.g. compounds according to WO04099210 or WO04099211) in excess.
The activity of the positive control (minus the negative control=background) is set to 100% and activity in the presence of test compound is expressed relative to these 100%. Within this setting, an inhibition above 100% might be possible due to the nature of the variation of the positive control within the assay. In the following inhibition of PDE 9A2 is presented for a concentration at 10 μM, if not indicated otherwise.
IC50 can be calculated with GraphPadPrism or other suited software setting the positive control as 100 and the negative control as 0. For calculation of IC50 dilutions of the test compounds (substrates) are to be selected and tested following the aforementioned protocol.

SMILES strings stand for the structures.

T1 sequence (O76083 1-533 isoform O76083-2): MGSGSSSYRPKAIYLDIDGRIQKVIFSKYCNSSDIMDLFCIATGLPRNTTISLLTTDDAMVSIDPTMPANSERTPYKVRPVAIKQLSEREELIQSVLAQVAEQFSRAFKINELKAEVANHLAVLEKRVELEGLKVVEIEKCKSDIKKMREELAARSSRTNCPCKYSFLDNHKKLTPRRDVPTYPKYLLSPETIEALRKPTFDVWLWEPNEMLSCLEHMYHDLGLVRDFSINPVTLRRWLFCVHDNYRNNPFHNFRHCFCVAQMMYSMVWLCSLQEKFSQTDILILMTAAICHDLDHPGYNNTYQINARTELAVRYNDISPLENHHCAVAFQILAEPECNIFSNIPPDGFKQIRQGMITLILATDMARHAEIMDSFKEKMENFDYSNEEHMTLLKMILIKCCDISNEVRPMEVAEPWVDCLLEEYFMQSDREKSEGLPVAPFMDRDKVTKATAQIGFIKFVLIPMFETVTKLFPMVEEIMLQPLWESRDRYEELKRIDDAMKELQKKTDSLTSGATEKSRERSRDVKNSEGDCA

For orientation: inhibition means the drop in the measured response relative to a control, in per cent. By IC50 is commonly meant the midpoint of a concentration-inhibition curve. A lower IC50 goes with greater potency in that assay. With `O=c1[nH]c(Cc2ccccc2-c2ccccn2)nc2c1cnn2C1CCC(F)(F)CC1` [Example 91], the inhibition at 10 µM is 95% and the IC50 was in the range of 1 to 100 nM.
With `O=C(Cc1ccccc1Cc1nc2c(cnn2C2CCC(F)(F)CC2)c(=O)[nH]1)N1CCCCC1` [Example 81], the inhibition at 10 µM worked out at 95% and the concentration for half-maximal inhibition (IC50) was in the range of 101 to 1500 nM.
The like results for `N#Cc1ccc(-c2ccc(F)cc2Cc2nc3c(cnn3C3CCC(F)(F)CC3)c(=O)[nH]2)cn1` [Example 57] were, in that order, 101% and 1 to 100 nM.
As for `Cc1nc(-c2ccccc2Cc2nc3c(cnn3C3CCC(F)(F)CC3)c(=O)[nH]2)no1` [Example 97], the inhibition at 10 µM was determined as 100% and the concentration for half-maximal inhibition (IC50) was in the range of 1 to 100 nM.
Regarding `COc1ncccc1-c1ccc(F)cc1Cc1nc2c(cnn2C2CCC(F)(F)CC2)c(=O)[nH]1` [Example 72-8], the inhibition at 10 µM worked out at 98% and the IC50 fell in the range of 1 to 100 nM.
In the case of `COc1cccnc1Cc1nc2c(cnn2C2CCC(F)(F)CC2)c(=O)[nH]1` [Example 100], the inhibition at 10 µM was found to be 95% and the half-maximal inhibitory concentration (IC50) was 101 to 1500 nM.
Take `CCCc1nc2c(cnn2C2CCC(F)(F)CC2)c(=O)[nH]1` [Example 22]: the inhibition at 10 µM was 104% and the IC50 is 1 to 100 nM.
On to `CCOC(=O)NC1CCCC(n2ncc3c(=O)[nH]c(Cc4ccccc4OC(F)(F)F)nc32)C1` (mixture of isomers) [Example 19], for which the inhibition at 10 µM stood at 100% and the half-maximal inhibitory concentration (IC50) was 1 to 100 nM.
On to `CC(Cc1nc2c(cnn2C2CCC(F)(F)CC2)c(=O)[nH]1)C(F)(F)F` (single isomer, unassigned) [Example 48], for which the “% Inhibition of PDE 9A2” value is listed as 96% and the IC50 was in the range of 101 to 1500 nM.
Consider `COc1cc(-c2ccc(F)cc2Cc2nc3c(cnn3C3CCC(F)(F)CC3)c(=O)[nH]2)ccn1` [Example 64], for which the inhibition at 10 µM stood at 97% and the IC50 lay in the range of 1 to 100 nM.
Consider `COc1cc(-c2ccccc2Cc2nc3c(cnn3C3CCC(F)(F)CC3)c(=O)[nH]2)ccn1` [Example 55], for which the inhibition at 10 µM amounted to 100% and the 50% inhibitory concentration (IC50) was 1 to 100 nM.
For the compound `O=c1[nH]c(Cc2ncccc2C2CC2)nc2c1cnn2C1CCC(F)(F)CC1` [Example 105], the inhibition at 10 µM was determined as 97% and the IC50 was 101 to 1500 nM.
Take `Cc1nc(-c2ccccc2Cc2nc3c(cnn3C3CCC(F)(F)CC3)c(=O)[nH]2)n[nH]1` [Example 99]: the inhibition at 10 µM turned out to be 100% and the IC50 is 1 to 100 nM.
The like results for `O=c1[nH]c(Cc2ccc(F)cc2-c2cccnc2)nc2c1cnn2C1CCC(F)(F)CC1` [Example 71] were, in that order, 98% and 1 to 100 nM.
As for `O=c1[nH]c(CC2CCCC2)nc2c1cnn2C1CCC(F)CC1` (stereo not shown) [Example 113], the inhibition at 10 µM amounted to 98% and the IC50 was in the range of 1 to 100 nM.
The like results for `CC1(C)CC(n2ncc3c(=O)[nH]c(CC4CC4)nc32)CC(C)(C)C1` [Example 13] were, in that order, 98% and 101 to 1500 nM.
The like results for `NC1CCCC(n2ncc3c(=O)[nH]c(CC4CCCC4)nc32)C1` (racemic) [Example 86] were, in that order, 77% and 101 to 1500 nM.
Take `COc1cncc(-c2ccc(F)cc2Cc2nc3c(cnn3C3CCC(F)(F)CC3)c(=O)[nH]2)c1` [Example 58]: the inhibition at 10 µM is 101% and the IC50 is 1 to 100 nM.
As to `O=c1[nH]c(Cc2ccccc2-c2ccc(N3CCOCC3)nc2)nc2c1cnn2C1CCC(F)(F)CC1` [Example 75], the inhibition at 10 µM turned out to be 101% and the half-maximal inhibitory concentration (IC50) fell in the range of 1 to 100 nM.
For `COc1cc(-c2cc(F)ccc2Cc2nc3c(cnn3C3CCC(F)(F)CC3)c(=O)[nH]2)ccn1` [Example 59] the same measures were 95% and 101 to 1500 nM.
In the case of `CN(C)C(=O)Cc1ccccc1Cc1nc2c(cnn2C2CCC(F)(F)CC2)c(=O)[nH]1` [Example 79], the inhibition at 10 µM came out at 95% and the IC50 lay within 101 to 1500 nM.
Turning to `CC(Cc1nc2c(cnn2C2CCC(F)(F)CC2)c(=O)[nH]1)C(F)(F)F` (racemic) [Example 30], the inhibition at 10 µM was 98% and the half-maximal inhibitory concentration (IC50) was 1 to 100 nM.
The like results for `O=c1[nH]c(C(F)c2ccccc2-n2cccn2)nc2c1cnn2C1CCC(F)(F)CC1` (racemic) [Example 88] were, in that order, 93% and 101 to 1500 nM.
Take `O=c1[nH]c(Cc2cc(F)ccc2-c2cccnc2)nc2c1cnn2C1CCC(F)(F)CC1` [Example 66]: the inhibition at 10 µM worked out at 100% and the IC50 was in the range of 1 to 100 nM.
For `Cc1cccnc1Cc1nc2c(cnn2C2CCC(F)(F)CC2)c(=O)[nH]1` [Example 35], the inhibition at 10 µM was 94% and the IC50 fell in the range of 1 to 100 nM.
Consider `CC(Cc1nc2c(cnn2C2CCC(F)(F)CC2)c(=O)[nH]1)C(F)(F)F` (single isomer, unassigned) [Example 47], for which the inhibition at 10 µM was determined as 98% and the IC50 lay in the range of 1 to 100 nM.
`O=c1[nH]c(Cc2ccccc2-c2ccnnc2)nc2c1cnn2C1CCC(F)(F)CC1` [Example 98]: the inhibition at 10 µM worked out at 100% and the half-maximal inhibitory concentration (IC50) is 1 to 100 nM.
`O=C(NC1CCCC(n2ncc3c(=O)[nH]c(Cc4ccccc4OC(F)(F)F)nc32)C1)c1ccccc1` (mixture of isomers) [Example 85]: the inhibition at 10 µM came to 94% and the IC50 was 101 to 1500 nM.
Consider `COc1ccc(-c2ccccc2Cc2nc3c(cnn3C3CCC(F)(F)CC3)c(=O)[nH]2)cn1` [Example 56], for which the inhibition at 10 µM was found to be 99% and the IC50 fell in the range of 1 to 100 nM.
For `O=c1[nH]c(Cc2ccccc2)nc2c1cnn2C1CCC(F)(F)CC1` [Example 4] the same measures were 100% and 1 to 100 nM.
As to `O=c1[nH]c(Cc2cccc(Cl)c2)nc2c1cnn2C1CCC(F)(F)CC1` [Example 5], the inhibition at 10 µM was determined as 98% and the IC50 lay within 1 to 100 nM.
`Nc1ccccc1Cc1nc2c(cnn2C2CCC(F)(F)CC2)c(=O)[nH]1` [Example 107]: the inhibition at 10 µM amounted to 100% and the half-maximal inhibitory concentration (IC50) lay in the range of 1 to 100 nM.
`O=c1[nH]c(CC2CC2)nc2c1cnn2C1CCCC(c2ccccc2)C1` (mixture of isomers) [Example 15]: the inhibition at 10 µM amounted to 93% and the IC50 lay in the range of 101 to 1500 nM.
As for `COc1ccc(-c2ccc(F)cc2Cc2nc3c(cnn3C3CCC(F)(F)CC3)c(=O)[nH]2)cc1` [Example 72-5], the inhibition at 10 µM amounted to 99% and the IC50 fell in the range of 1 to 100 nM.
As for `COC1CCCCC1n1ncc2c(=O)[nH]c(CC3CC3)nc21` (racemic) [Example 11], the inhibition at 10 µM was found to be 89% and the concentration for half-maximal inhibition (IC50) was 101 to 1500 nM.
As for `O=c1[nH]c(CC2CC2)nc2c1cnn2C1CCC(F)(F)CC1` [Example 2], the inhibition at 10 µM is 101% and the IC50 was 1 to 100 nM.
`CC(Cc1nc2c(cnn2C2CCC(F)(F)CC2)c(=O)[nH]1)C(F)F` (racemic) [Example 48-5]: the inhibition at 10 µM worked out at 93% and the IC50 lay within 101 to 1500 nM.
The like results for `NC1CCCC(n2ncc3c(=O)[nH]c(Cc4ccccc4OC(F)(F)F)nc32)C1` (racemic) [Example 87] were, in that order, 81% and 101 to 1500 nM.
For `O=c1[nH]c(Cc2ccccc2I)nc2c1cnn2C1CCC(F)(F)CC1` [Example 36] the same measures were 99% and 1 to 100 nM.
Turning to `O=c1[nH]c(Cc2cc(F)ccc2-c2ccccn2)nc2c1cnn2C1CCC(F)(F)CC1` [Example 90], the inhibition at 10 µM turned out to be 97% and the half-maximal inhibitory concentration (IC50) lay within 1 to 100 nM.
`CCCC1OCCCC1Cc1nc2c(cnn2C2CCC(F)(F)CC2)c(=O)[nH]1` (racemic) [Example 24]: the inhibition at 10 µM turned out to be 98% and the IC50 fell in the range of 101 to 1500 nM.
`O=c1[nH]c(Cc2ncccc2-n2cccn2)nc2c1cnn2C1CCC(F)(F)CC1` [Example 96]: the inhibition at 10 µM stood at 93% and the IC50 fell in the range of 1 to 100 nM.
For the compound `COc1ccc(-c2cc(F)ccc2Cc2nc3c(cnn3C3CCC(F)(F)CC3)c(=O)[nH]2)cc1` [Example 68], the inhibition at 10 µM stood at 96% and the 50% inhibitory concentration (IC50) lay in the range of 101 to 1500 nM.
For `CCC(Cc1nc2c(cnn2C2CCC(F)(F)CC2)c(=O)[nH]1)C(F)(F)F` (single isomer, unassigned) [Example 102], the “% Inhibition of PDE 9A2” value stood at 96% and the IC50 lay in the range of 101 to 1500 nM.
As to `Cn1cc(-c2ccccc2C(F)c2nc3c(cnn3C3CCC(F)(F)CC3)c(=O)[nH]2)cn1` (racemic) [Example 72-11], the inhibition at 10 µM came to 84% and the IC50 lay within 1 to 100 nM.
Turning to `O=c1[nH]c(Cc2ccccc2-n2cccc2)nc2c1cnn2C1CCC(F)(F)CC1` [Example 104], the inhibition at 10 µM stood at 97% and the IC50 was in the range of 1 to 100 nM.
The like results for `O=c1[nH]c(Cc2ncccc2Br)nc2c1cnn2C1CCC(F)(F)CC1` [Example 46] were, in that order, 98% and 1 to 100 nM.
